What all share (assay type): in vivo
The test system of test [1] is Lindernia pyxidaria. Kind of test: Test Example 1: herbicidal effect test by soil application in paddy rice. Particulars: 336 h, 120 g active ingredient per 10 ares, applied immediately after sowing, flooded pots, 14 days after application, read-out: weed inhibition rate. The procedure, abridged: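 Pre-emergence test in puddled, flooded paddy soil (about 3 cm water), 30 seeds per weed sown at 0–1 cm depth in a glass greenhouse. Emulsifiable concentrate diluted in water and dropped onto the pots straight after sowing at 120 g a.i. per 10 ares. Weed inhibition (%) scored at 14 days, in duplicate.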

The subject of test [2] is Lindernia pyxidaria. Kind of test: Test Example 2: herbicidal effect test by application during growth period of paddy rice. The note with it: 120 g per 10 ares, applied seven days after sowing, flooded pots, 14 days after application, read-out: weed inhibition rate. Summed up:
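Greenhouse pots of flooded paddy soil, seeded shallowly with 30 seeds per weed, are treated on day 7 by dropper with diluted emulsifiable concentrate equal to 120 g a.i./10 a. Duplicate pots are scored for inhibition rate 14 days post-application.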

The test system of test [3] is Amaranthus viridis. Nature of the test: Test Example 4: herbicidal effect test by stem and leaf treatment in upland field. Particulars: 120 g per 10 ares, sprayed seven days after sowing, upland soil, 14 days after application, read-out: weed inhibition rate. The procedure, abridged:
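Post-emergence spray, 7 days after sowing: diluted emulsifiable concentrate at 100 liters per 10 ares delivering 120 g active ingredient per 10 ares. Weeds grown from seed mixed into the top 1 cm of alluvial loam. Inhibition (%) by formula at 14 days; duplicates.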

For test [4], the system named is Chenopodium album. The test is described as above. Particulars: 120 g per 10 ares, sprayed seven days after sowing, upland soil, 14 days after application, read-out: weed inhibition rate.
In test [5] the test system is Lindernia pyxidaria. Nature of the test: Test Example 5: herbicidal effect test by soil application in paddy rice (low dose). Particulars: 336 h, 7.5 g per 10 ares, applied immediately after sowing, flooded pots, 14 days after application, read-out: weed inhibition rate. Summed up:
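7.5 g a.i./10 a applied by dropper into ~3 cm floodwater immediately post-sowing (seeds 0–1 cm, 30 per species; puddled fertilized paddy soil, glasshouse). Duplicates; day-14 inhibition %.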

The test system of test [6] is Amaranthus viridis. Nature of the test: Test Example 7: herbicidal effect test by soil application in upland field (low dose). The note with it: 7.5 g per 10 ares, sprayed one day after sowing, upland soil, 14 days after application, read-out: weed inhibition rate.
Test [7] relates to Chenopodium album. Nature of the test: Test Example 8: herbicidal effect test by stem and leaf treatment in upland field (low dose). Particulars: 7.5 g per 10 ares, sprayed seven days after sowing, upland soil, 14 days after application, read-out: weed inhibition rate. The procedure, abridged:
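Post-emergence spray, seven days after sowing, of water-diluted emulsifiable concentrate at 100 L per 10 ares, delivering 7.5 g active ingredient per 10 ares, onto 36 cm^2 pots of alluvial loam. Weed inhibition rate (%) scored 14 days after application, in duplicate.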

The subject of test [8] is Echinochloa crus-galli var. formosensis at the three-leaf stage. Kind of test: Comparative Example: herbicidal effect test by application during growth period of paddy rice (three-leaf stage, Table 7). Particulars: 504 h, active ingredient 7.5 g per 10 ares, emulsifiable concentrate applied by dropper to flooded pots, 21 days after chemical application, triplicate, read-out: Weed inhibition rate (%). The procedure:
As an example, the herbicidal effect on Echinochloa crus-galli var. formosensis at the three-leaf stage was confirmed by the following method, and the results are specifically shown in Table 7 as a comparative example.
Wagner pots with an area of […] were filled with paddy soil, followed by addition of water and incorporation of chemical fertilizer (N:P:K = 16:16:16), after which puddling was performed. After that, 30 seeds of Echinochloa crus-galli var. formosensis were sown at a depth of 0 cm to 1 cm. Immediately after sowing, the pots were flooded and a water depth of approximately 3 cm was maintained. Subsequent management was conducted in a glass greenhouse. When Echinochloa crus-galli var. formosensis reached the three-leaf stage, an emulsifiable concentrate prepared according to Formulation Example 5 using the compound shown below was diluted with water, and a specified amount of the diluted solution was applied by dropper. The amount of the active ingredient to be applied was equivalent to 7.5 g per 10 ares. The test was conducted in triplicate for each chemical concentration group, and the weed inhibition rate (%) was determined 21 days after chemical application using the following formula (Math. 1).

For ten compounds, pest or weed control and inhibition results are on record in EP4707280A1, “1,4-CINEOLE DERIVATIVE AND INTERMEDIATE THEREOF, HERBICIDE CONTAINING SAID DERIVATIVE AS ACTIVE INGREDIENT, METHOD FOR USING HERBICIDE, AND METHOD FOR PREPARING AGROCHEMICAL COMPOSITION” (HOKKO CHEMICAL INDUSTRY CO., LTD., priority 2023, dated 2024).

Molecules are shown by their SMILES. A value given as a limit tells only on which side of the number the result lay.

By inhibition is commonly meant how much of the control response was suppressed. For `CC(C)[C@]12C[C@@H](OCc3ccccc3F)[C@](C)(CC1OCC1CC1)O2` (mixture of isomers) [1-921, (1S,2R,4R,SR)-5-(cyclopropylmethoxy)-2-[(2-fluorophenyl)methoxy]-1-methyl-4-isopropyl-7-oxabicyclo[2.2.1]heptane], the pest or weed control at 1200 g/ha in test [1] is at least 80%. Further, the inhibition at 1200 g/ha in test [2], in test [3] and in test [4] was at least 80% in each case. For the same compound, the inhibition at 75 g/ha in test [5], in test [6] and in test [7] was at least 80% each time.
Take `CC(C)[C@]12C[C@@H](OCc3c(F)cccc3F)[C@](C)(CC1=O)O2` [2-20, (1R,4S,5R)-5-((2,6-difluorobenzyl)oxy)-1-isopropyl-4-methyl-7-oxabicyclo[2.2.1]heptan-2-one]: the inhibition at 1200 g/ha in test [2] and in test [3] was at least 80% throughout. Moreover, the inhibition at 75 g/ha in test [5] is at least 80%.
As for `Cc1ccccc1CO[C@@H]1C[C@]2(C(C)C)O[C@@]1(C)C[C@@H]2F` [1-2, (1R,2S,4S,5R)-2-fluoro-1-isopropyl-4-methyl-5-((2-methylbenzyl)oxy)-7-oxabicyclo[2.2.1]heptane], the inhibition at 1200 g/ha in test [2], in test [3] and in test [4] was at least 80% in each case. Besides, the inhibition at 75 g/ha is at least 80% in test [7] and 94% in test [8].
Take `CC(C)[C@]12C=C[C@](C)(O1)C(OCc1ccccc1F)C2` (mixture of isomers) [3-5, (1R,4S,SR)-5-[(2-fluorophenyl)methoxy]-4-methyl-1-isopropyl-7-oxabicyclo[2.2.1]hept-2-ene]: the pest or weed control at 1200 g/ha in test [1] is at least 80%. For the same compound, the inhibition at 1200 g/ha in test [2], in test [3] and in test [4] was at least 80% each time. For the same compound, the inhibition at 75 g/ha in test [7] is at least 80%; in test [8], 82%.
`C=C1C[C@]2(C)O[C@@]1(C(C)C)C[C@H]2OCc1ccccc1F` [2-88, (1R,4S,5R)-5-((2-fluorobenzyl)oxy)-1-isopropyl-4-methyl-2-methylene-7-oxabicyclo[2.2.1]heptane]: the pest or weed control at 1200 g/ha in test [1] is at least 80%. Besides, the inhibition at 1200 g/ha in test [2] and in test [4] was at least 80% throughout. For the same compound, the figures for the inhibition at 75 g/ha in test [6], in test [7] and in test [8] were at least 80%, at least 80% and 80%, respectively.
As for `CC(C)[C@]12C[C@@H](OCc3ccccc3F)[C@](C)(C[C@@H]1OCc1ccccc1F)O2` [1-603, (1S,2R,4R,5S)-2,5-bis[(2-fluorophenyl)methoxy]-1-methyl-4-isopropyl-7-oxabicyclo[2.2.1]heptane], the pest or weed control at 1200 g/ha in test [1] was at least 80%. In addition, the inhibition at 1200 g/ha in test [4] is at least 80%. For the same compound, the inhibition at 75 g/ha in test [5] was at least 80%.
Take `C#CCO[C@@H]1C[C@]2(C)O[C@@]1(C(C)C)C[C@H]2OCc1ccccc1F` [1-931, (1S,2R,4R,5R)-2-[(2-fluorophenyl)methoxy]-1-methyl-4-isopropyl-5-prop-2-ynoxy-7-oxabicyclo[2.2.1]heptane]: in test [1], the pest or weed control at 1200 g/ha is at least 80%. The inhibition at 1200 g/ha in test [2], in test [3] and in test [4] was at least 80% in each case. Moreover, the inhibition at 75 g/ha in test [5] and in test [6] was at least 80% in each case.
As to `CC(C)[C@]12C[C@@H](OCc3ccccc3F)[C@](C)(CC1C)O2` (stereo partly drawn) [1-92, (1S,2R,4R)-2-((2-fluorobenzyl)oxy)-4-isopropyl-1,5-dimethyl-7-oxabicyclo[2.2.1]heptane], the inhibition at 1200 g/ha in test [3] and in test [4] was at least 80% each time. Further, the inhibition at 75 g/ha in test [7] was at least 80%; in test [8], 100%.
On to `C=C1C[C@]2(C)O[C@@]1(C(C)C)C[C@H]2OCc1ccccc1C` [2-72, (1R,4S,5R)-1-isopropyl-4-methyl-5-((2-methylbenzyl)oxy)-2-methylene-7-oxabicyclo[2.2.1]heptane], for which, in test [1], the pest or weed control at 1200 g/ha is at least 80%. Besides, the inhibition at 1200 g/ha in test [2] and in test [4] was at least 80% each time. The inhibition at 75 g/ha in test [6] and in test [7] was at least 80% each time.
On to `C=CCO[C@@H]1C[C@]2(C)O[C@@]1(C(C)C)C[C@H]2OCc1ccccc1F` [1-930, (1S,2R,4R,5R)-2-[(2-fluorophenyl)methoxy]-1-methyl-4-isopropyl-5-prop-2-enoxy-7-oxabicyclo[2.2.1]heptane], for which, in test [1], the pest or weed control at 1200 g/ha was at least 80%. Further, the inhibition at 1200 g/ha in test [2], in test [3] and in test [4] was at least 80% each time. In addition, the inhibition at 75 g/ha in test [5], in test [6] and in test [7] was at least 80% in each case.
